Test results from patent US9029395B2, “Tetrahydroquinoline derivatives useful as bromodomain inhibitors” (GlaxoSmithKline LLC, priority 2011, dated 2015).
Where a name gives a salt, the structure may show the parent alone.

Key:
[1] = target: T1, Bromodomain BRD2 (1-473) (Homo sapiens, UniProt P25440); assay: Time Resolved Fluorescence Resonance Energy Transfer (TR-FRET) binding assay, BRD2; conditions: BRD2 100 nM, acetylated histone peptide 300 nM
T1 construct: Recombinant Human Bromodomains (BRD2 (1-473), BRD3 (1-435) and BRD4 (1-477)); made in house; host or cells: E. coli (pET15b vector)
Description: (§1) The binding of the compounds of formula (I) to Bromodomains BRD2, BRD3 and BRD4 was assessed using a time resolved fluorescent resonance energy transfer binding assay, that measures the binding of an acetylated histone peptide to the bromodomain protein.
(§2) The bromodomain protein, histone peptide and a variable concentration of test compound are incubated together to reach thermodynamic equilibrium.
(§3) • H-Ser-Gly-Arg-Gly-Lys(Ac)-Gly-Gly-Lys(Ac)-Gly-Leu-Gly-Lys(Ac)-Gly-Gly-Ala-Lys(Ac)-Arg-His-Gly-Ser-Gly-Ser-Lys(Biotin)-OH. 3TFA
(§4) Protein Production: Recombinant Human Bromodomains (BRD2 (1-473), BRD3 (1-435) and BRD4 (1-477)) were expressed in E. coli cells (in pET15b vector) with a six-His tag at the N-terminal. The His-tagged Bromodomain was extracted from E. coli cells using sonication and purified using a nickel sepharose 6FF column, the proteins were washed and then eluted with 50 mM Tris-Hcl pH8.0. 300 mM NaCl, 1 mM […] and 20 mM Imidazole. Further purification was performed by affinity chromatography on a HisTRAP HP column, eluting with a linear 0-500 mM sodium chloride gradient, over 20 column volumes. Final purification was completed by Superdex 200 prep grade size exclusion column. Purified protein was stored at −80 C in 20 mM HEPES pH 7.5 and 100 mM NaCl. Protein identity was confirmed by peptide mass fingerprinting and predicted molecular weight confirmed by mass spectrometry.
(§5) Protocol for Bromodomain BRD2, 3 and 4 Assays: All assay components were dissolved in buffer composition of 50 mM HEPES pH7.4, 50 mM NaCl and 0.5 mM CHAPS. The final concentration of bromodomain proteins were 100 nM and the histone peptide was 300 nM, these components are premixed and allowed to equilibrate for 1 hour in the dark. 8 μl of this reaction mixture was added to all wells containing 50 nl of various concentrations of test compound or DMSO vehicle (0.5% final) in Greiner 384 well black low volume microtitre plates and incubated in dark for 60 mins at room temperature. 2 μl of detection mixture containing anti-6his XL665 labeled antibody and streptavidin labeled with europium cryptate was added to all wells and a further dark incubation of at least 30 mins was performed. Plates were then read on the Envision platereader, (λex=317 nm, donor λEM=615 nm; acceptor λEM=665 nm; Dichroic LANCE dual). Time resolved fluorescent intensity measurements were made at both emission wavelengths and the ratio of acceptor/donor was calculated and used for data analysis. All data was normalized to the mean of 16 high and 16 low control wells on each plate. A four parameter curve fit of the following form was then applied: y=a+((b−a)/(1+(10^x/10^c)^d)
(§6) Where ‘a’ is the minimum, ‘b’ is the Hill slope, ‘c’ is the pIC50 and ‘d’ is the maximum.

[2] = target: T2, Bromodomain BRD3 (1-435) (Homo sapiens, UniProt Q15059); assay: Time Resolved Fluorescence Resonance Energy Transfer (TR-FRET) binding assay, BRD3; conditions: BRD3 100 nM, acetylated histone peptide 300 nM
T2 construct: Recombinant Human Bromodomains (BRD2 (1-473), BRD3 (1-435) and BRD4 (1-477)); made in house; host or cells: E. coli (pET15b vector)
Description: as §1, §2, §3, §4, §5, §6

[3] = target: T3, Bromodomain BRD4 (1-477) (Homo sapiens, UniProt O60885); assay: Time Resolved Fluorescence Resonance Energy Transfer (TR-FRET) binding assay, BRD4; conditions: BRD4 100 nM, acetylated histone peptide 300 nM
T3 construct: Recombinant Human Bromodomains (BRD2 (1-473), BRD3 (1-435) and BRD4 (1-477)); made in house; host or cells: E. coli (pET15b vector)
Description: as §1, §2, §3, §4, §5, §6

[4] = system: LPS induced IL-6 secretion from whole blood; assay: Measurement of LPS induced IL-6 secretion from whole blood; assay type: cell-based; conditions: LPS 200 ng/ml, 24 hours, IL-6 by immunoassay
Description: Activation of monocytic cells by agonists of toll-like receptors such as bacterial lipopolysaccharide (LPS) results in production of key inflammatory mediators including IL-6. Such pathways are widely considered to be central to the pathophysiology of a range of auto-immune and inflammatory disorders.
Compounds to be tested are diluted to give a range of appropriate concentrations of which 1 μl of the diluted stocks is added to a 96 well plate. Following addition of whole blood (130 μl) the plates are incubated at 37 degrees (5% CO2) for 30 min before the addition of 10 μl of 2.8 ug/ml LPS, diluted in complete RPMI 1640 (final concentration=200 ng/ml), to give a total volume of 140 ul per well. After further incubation for 24 hours at 37 degrees, 140 μl of PBS are added to each well. The plates are sealed, shaken for 10 minutes and then centrifuged (2500 rpm×10 min). 100 μl of the supernatant are removed and IL-6 levels assayed by immunoassay (typically by MesoScale Discovery technology) either immediately or following storage at −20 degrees. Concentration response curves for each compound was generated from the data and an IC50 value was calculated.

T2 sequence (Q15059 1-435): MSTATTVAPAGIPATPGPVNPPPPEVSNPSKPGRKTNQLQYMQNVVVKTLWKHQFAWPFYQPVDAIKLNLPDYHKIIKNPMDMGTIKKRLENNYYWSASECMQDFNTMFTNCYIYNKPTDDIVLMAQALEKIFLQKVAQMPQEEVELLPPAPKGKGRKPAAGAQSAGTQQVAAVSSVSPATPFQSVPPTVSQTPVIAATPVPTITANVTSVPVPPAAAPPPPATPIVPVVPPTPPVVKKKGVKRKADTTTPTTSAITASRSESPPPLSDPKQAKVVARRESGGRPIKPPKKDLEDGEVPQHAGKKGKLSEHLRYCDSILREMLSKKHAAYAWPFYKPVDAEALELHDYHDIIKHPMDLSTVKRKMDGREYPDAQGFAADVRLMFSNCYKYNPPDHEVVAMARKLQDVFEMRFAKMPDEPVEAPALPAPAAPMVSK
T1 sequence (P25440 1-473): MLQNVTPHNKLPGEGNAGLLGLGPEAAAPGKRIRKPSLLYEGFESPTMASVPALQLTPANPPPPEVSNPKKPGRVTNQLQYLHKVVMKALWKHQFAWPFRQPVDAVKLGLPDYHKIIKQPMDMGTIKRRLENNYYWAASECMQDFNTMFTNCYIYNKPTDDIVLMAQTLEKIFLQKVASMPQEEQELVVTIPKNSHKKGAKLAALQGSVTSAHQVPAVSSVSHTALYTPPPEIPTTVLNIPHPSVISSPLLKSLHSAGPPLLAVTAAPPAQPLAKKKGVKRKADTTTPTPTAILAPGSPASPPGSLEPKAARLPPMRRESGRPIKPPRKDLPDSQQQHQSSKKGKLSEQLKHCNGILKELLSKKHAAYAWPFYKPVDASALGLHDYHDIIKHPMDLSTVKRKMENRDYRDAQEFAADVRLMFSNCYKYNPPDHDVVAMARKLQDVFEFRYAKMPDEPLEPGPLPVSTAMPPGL

| SMILES | IC50 [1] [nM] | IC50 [2] [nM] | IC50 [3] [nM] | IC50 [4] [nM] |
| --- | --- | --- | --- | --- |
| CC(=O)N1c2ccc(-c3ccc(C(=O)OCCN(C)C)cc3)cc2[C@H](Nc2ccc(Cl)cc2)C[C@@H]1C [Example 1, 2-(Dimethylamino)ethyl 4-((2S,4R)-1-acetyl-4-((4-chlorophenyl)amino)-2-methyl-1,2,3,4-tetrahydroquinolin-6-yl)benzoate hydrochloride] | 63.1 to 501 | 63.1 to 501 | 63.1 to 501 | 200 to 3160 |
| CC(=O)N1c2ccc(-c3ccc(C(=O)OCC[N+](C)(C)C)cc3)cc2[C@H](Nc2ccc(Cl)cc2)C[C@@H]1C [Example 2, 2-((4-((2S,4R)-1-Acetyl-4-((4-chlorophenyl)amino)-2-methyl-1,2,3,4-tetrahydroquinolin-6-yl)benzoyl)oxy)-N,N,N-trimethylethanaminium, formate] | 63.1 to 501 | 63.1 to 501 | 63.1 to 501 | 200 to 3160 |
| CC(=O)N1c2ccc(-c3ccc(C(=O)OCCC[N+](C)(C)C)cc3)cc2[C@H](Nc2ccc(Cl)cc2)C[C@@H]1C [Example 3, 3-((4-((2S,4R)-1-Acetyl-4-((4-chlorophenyl)amino)-2-methyl-1,2,3,4-tetrahydroquinolin-6-yl)benzoyl)oxy)-N,N,N-trimethylpropan-1-aminium, formate] | 63.1 to 501 | 63.1 to 501 | 63.1 to 501 | 200 to 3160 |
| CC(=O)N1c2ccc(-c3ccc(C(=O)OCCCN(C)C)cc3)cc2[C@H](Nc2ccc(Cl)cc2)C[C@@H]1C [Example 4, 3-(Dimethylamino)propyl 4-((2S,4R)-1-acetyl-4-((4-chlorophenyl)amino)-2-methyl-1,2,3,4-tetrahydroquinolin-6-yl)benzoate] | 63.1 to 501 | 63.1 to 501 | 63.1 to 501 | – |
| CC(=O)N1c2ccc(-c3ccc(C(=O)OCCCN(C)C)cn3)cc2[C@H](Nc2ccc(C#N)cn2)C[C@@H]1C [Example 5, 3-(Dimethylamino)propyl 6-((2S,4R)-1-acetyl-4-((5-cyanopyridin-2-yl)amino)-2-methyl-1,2,3,4-tetrahydroquinolin-6-yl)nicotinate] | 63.1 to 501 | 63.1 to 501 | 63.1 to 501 | 200 to 3160 |
| CC(=O)N1c2ccc(-c3ccc(C(=O)OCCN(C)C)cn3)cc2[C@H](Nc2ccc(C#N)cn2)C[C@@H]1C [Example 6, 2-(Dimethylamino)ethyl 6-((2S,4R)-1-acetyl-4-((5-cyanopyridin-2-yl)amino)-2-methyl-1,2,3,4-tetrahydroquinolin-6-yl)nicotinate] | 63.1 to 501 | 63.1 to 501 | 63.1 to 501 | 200 to 3160 |
| CC(=O)N1c2ccc(-c3ccc(C(=O)OCCCN(C)C)cc3)cc2[C@H](NC(=O)OC(C)C)C[C@@H]1C [Example 7, 3-(Dimethylamino)propyl 4-((2S,4R)-1-acetyl-4-((isopropoxycarbonyl)amino)-2-methyl-1,2,3,4-tetrahydroquinolin-6-yl)benzoate] | 63.1 to 501 | 63.1 to 501 | 63.1 to 501 | 200 to 3160 |
| CC(=O)N1c2ccc(-c3ccc(C(=O)OCCN(C)C)cc3)cc2[C@H](NC(=O)OC(C)C)C[C@@H]1C [Example 8, 2-(Dimethylamino)ethyl 4-((2S,4R)-1-acetyl-4-((isopropoxycarbonyl)amino)-2-methyl-1,2,3,4-tetrahydroquinolin-6-yl)benzoate] | 63.1 to 501 | 63.1 to 501 | 63.1 to 501 | 200 to 3160 |
